From PubChem BioAssay (NCI)
Values joined by “and” are separate entries in the source; they are usually repeats but may differ in a detail not shown here. Identical values can stand only once.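 The compound was tested at five concentrations on cells cultured in 96-well plates, with a 48-hour exposure period. GI50 is the concentration that inhibits growth by half. TGI marks complete inhibition of growth.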

Experiments:
Assay in all cases: NCI tumour cell line growth inhibition, 48 h
HOP-92 NSCLC = system: HOP-92 NSCLC
MOLT-4 leukemia = system: MOLT-4 leukemia
PC-3 prostate = system: PC-3 prostate
MALME-3M melanoma = system: MALME-3M melanoma
SK-MEL-5 melanoma = system: SK-MEL-5 melanoma
SF-539 CNS = system: SF-539 CNS
SF-268 CNS = system: SF-268 CNS
A498 renal = system: A498 renal

Compound | GI50 (HOP-92 NSCLC) [µM] | GI50 (MOLT-4 leukemia) [µM] | TGI (MOLT-4 leukemia) | GI50 (PC-3 prostate) [µM] | TGI (PC-3 prostate) [µM] | GI50 (MALME-3M melanoma) [µM] | GI50 (SK-MEL-5 melanoma) [µM] | GI50 (SF-539 CNS) [µM] | TGI (SF-539 CNS) | GI50 (SF-268 CNS) [µM] | TGI (SF-268 CNS) [µM] | GI50 (A498 renal) [µM] | TGI (A498 renal) [µM] | TGI (HOP-92 NSCLC) [µM] | TGI (MALME-3M melanoma) [µM] | TGI (SK-MEL-5 melanoma) [µM]
COc1cccc(-c2cc(=O)c3cc(N4CCOCC4)ccc3[nH]2)c1 | 0.246 | 0.0338 | 1.48 µM and 0.17 µM | 0.0281 | > 100 | 0.019 | 0.0319 | 0.0193 | 0.0505 µM and 0.42 µM | 0.149 | 57.6 |  |  |  |  | 
Cc1cnc2oc3ccc(O)cc3c2c1-c1ccccc1 | 3.34 |  |  | 6.51 | > 100 | 32.5 | 35.8 | 16.1 | 37.5 µM | 16.1 | 58.8 | 21.5 | 70.5 | 38.5 | > 100 | > 100
O=C1CC(c2ccccc2)Cc2nc3ccc(Br)cc3cc21 (stereo not given) | 0.45 | 0.0639 | > 100 µM | 0.296 | > 100 | 0.076 | 0.342 | 0.226 | 0.693 µM | 4.65 | > 100 | 0.0377 | 0.487 | 46.1 | > 91.8 | 2.22
O=C(C=P(c1ccccc1)(c1ccccc1)c1ccccc1)CCl | 0.142 | 1.59 | 6.85 µM | 1.54 | 3.34 | 1.32 | 1.45 | 1.28 | 2.98 µM | 1.75 | 4.01 | 1.09 | 2.46 | 0.693 | 3.08 | 2.83
C#Cc1cccc(Nc2ncnc3ccc(OCCCCNCCS(C)(=O)=O)cc23)c1 | 1.68 | 7.97 | 21.4 µM | 9.55 | > 25 | 4.88 | 4.26 | 4.49 | 8.72 µM | 6.13 | > 23.7 | 3.18 | 9.75 | 14.4 | 9.47 | 8.63
CCOC(=O)C1=C(C)NC(=O)NC1CN1C(=O)c2ccccc2C1=O (stereo not given) | > 100 | > 100 | > 100 µM | > 100 | > 100 | > 100 | > 100 | > 100 | > 100 µM | > 100 | > 100 | > 100 | > 100 | > 100 | > 100 | > 100
COc1ccc2c3c1OC1C(OC)(OC)C=C[C@@]4(Br)[C@@H](C2)N(CC2CC2)CC[C@]314 (stereo not given in full) |  |  | > 100 µM |  | > 100 |  |  |  | > 100 µM |  | > 100 |  | > 100 | 83.9 | > 100 | > 100
Oc1ccc2c3c1OC1c4[nH]ncc4C[C@H]4[C@@H](C2)N(CC2CC2)CC[C@]314 (stereo not given in full) |  |  | > 100 µM |  | > 100 |  |  |  |  |  | > 100 |  |  | > 100 | > 100 | > 100
N#CC1=C(N)NC(=S)NC12Nc1ccccc1S2 (stereo not given) | 22.4 | 28.8 | > 100 µM | 22 | 71.7 | 24.2 | 19.6 | 14.7 | 41.4 µM |  |  |  |  | > 100 | 56.8 | 54.9
